Results on 1 compound are retold here after patent US20100217003A1, “1,2,3,4-TETRAHYDROISOQUINOLINE DERIVATIVES HAVING EFFECTS OF PREVENTING AND TREATING DEGENERATIVE AND INFLAMMATORY DISEASES” (priority 2006, published 2010).

In data set [1] the test system is BV-2 cell. In words: Inhibitory effect on NO production in LPS-stimulated BV-2 microglial cells (Griess). In kind it is cell-based, mouse. Here is the method:
BV-2 microglial cell line, CATH.a neuron line and SK-N-BE(2)C neuron line were cultured in Dulbecco's modified Eagle's medium (DMEM) supplemented with 10% bovine serum, […] penicillin, and 10 ? /ml streptomycin at 37° C. in an atmosphere of 5% CO2 and 95% air. The cells were planted on a polystyrene petri dish at the following densities: BV-2 (2.5×10^5 cells/24 well or 2.6×10^6 cells/60 mm dish; SK− N-BE(2)C (1.5×10^5 cells/24 well); and CATH.a (2.4×10^4 cells/96 well).
Measurement of NO Production
200 ? of cell culture medium fraction and 100 ? of Griess reagent (2.5% […], 1% sulfanilamide and 0.1% naphthylethylenediamine dihydrochloride) were mixed in a 96-well microtiter plate, and the absorbance of a sample was read at 540 nm using a microtiter plate reader (multi-well spectrophotometer). The concentration of nitrite was calculated using a standard curve for sodium nitrite.
To determine whether EHMTIQ (11a) inhibits NO production in an activated […] cell, a mouse microglial cell line, BV-2, was used in this assay. Lipopolysaccharide (LPS)-stimulated BV-2 cell samples were treated with various concentrations of EHMTIQ (11a) and then the NO level of a sample was measured. The results are illustrated in FIG. 1.
A general note: Griess reagent forms a coloured azo dye with nitrite.

Data set [2] concerns BV-2 cell. In words: Cytotoxicity of single treatment in BV-2 cells. The format is cell-based, mouse. As to conditions: single treatment (not illustrated).
In data set [3] the test system is TNF-α mRNA. In words: Expression of TNF-α genes in LPS-stimulated BV-2 cells (RT-PCR). In kind it is cell-based, mouse. As for the experimental part: RT-PCR for GTPCH, iNOS, TNF-α, IL-1β and COX-2
5 ? each of total RNA samples isolated from BV-2 cells were subjected to reverse-transcription (RT), and then polymerase chain reaction (PCR) for 30 cycles under the conditions of 94° C. for 30 seconds, 60° C. for 40 seconds and 72° C. for one minute. Primers used in the PCR were as follows: iNOS (forward, ATGTCCGAAG-CAAACATCAC; reverse, TAATGTC CAGGAAGTAGGTG), TNF-α (forward, CA-[…] reverse, CAGAGCAATGACTC-CAAAGTAGACCT), IL-1β (forward, […]; reverse, CAGGACAGGTAT AGATTCTTTCCTTT), COX-2 (forward, […]; reverse, […]), GTPCH (forward, GGATACCAGGAGACCAT CTCA; reverse, TAGCATGGTGC-TAGTGACAGT). RT-PCR for B2M was simultaneously performed as internal control. The PCR products were subjected to electrophoresis in a 1.5% agarose gel, thereby confirming the presence of a desired size of single band.
The assay was performed to determine whether EHMTIQ (11a) affects TNF-α production in an activated microglial cell. LPS-stimulated BV-2 cell samples were treated with various concentrations of EHMTIQ (11a) and the expression of TNF-α genes was estimated by RT-PCR. The results are illustrated in FIG. 3.

Data set [4] in a line: Free-radical scavenging activity (DPPH). The settings on record: various concentrations. As for the experimental part: Measurement of Free-Radical Scavenging Activity
Antioxidant activity was evaluated based on scavenging activity of 2,2-diphenyl-1-picrylhydrazyl (DPPH) radical. DPPH was dissolved in 80% methanol to make a final concentration of 100 ? . 8 ? of EHMTIQ (11a) dissolved in dimethyl sulfoxide reacted with 232 ? of DPPH radical solution. The reaction mixture was incubated for 25 minutes at RT, and then the absorbance of DPPH was measured at 517 nm using a SpectraMax GEMINI XS fluorescence spectrophotometer (Molecular Devices, Sunnyvale, Calif., USA).
Free radicals produced by an activated microglial cell cause oxidative stress and structural transformation in protein, nucleic acid and lipids of a neuron, which lead to cell injury. Accordingly, the assay was performed to determine whether EHMTIQ (11a) has free radical scavenging activity.
(In general: The DPPH test is a chemical assay of radical scavenging.)

Data set [5] can be described thus: Drug stability against liver microsomal enzymes. The format is in vitro ADME, rat. Here is the method: Evaluation for Drug Stability
1 mM EHMTIQ (11a) was added to 1 mg samples of white rat liver microsomes, and the samples were incubated at 37° C. for 0, 30, 120 and 240 minutes in the presence of a NADPH-regeneration system (2.6 mM β-NADP^+, 10 mM glucose-6-phosphate, 4 UI/ml glucose-6-phosphate dehydrogenase and 10 mM MgCl2). Perchloric acid was added to the sample to make a final concentration of 500 mM and then the reaction was stopped. The reaction mixture was centrifuged at 16,000×g for 20 minutes. The supernatant solution (120 l) was purified using a Waters HPLC system [717 plus autosampler, 515 pump, and Symmetry C18 column (4.6 mm×150 mm, […])] using a 5-30% linear gradient of acetonitrile as mobile phase. EHMTIQ (11a) was detected at 254 nm using a Waters 486 UV detector and analyzed using EMPOWER software (Millipore Corporation, Milford, Mass., USA).
Since almost all micromolecules are degraded by enzymes in the liver, the stability of a medicine to these enzymes is very important. To evaluate bioavailability of EHMTIQ (11a) in vivo, the degradation rate of EHMTIQ (11a) by liver microsomal enzyme was measured, and neutralized to remaining EHMTIQ after exposure to liver microsomes.

On to `CCC(=O)N1CCc2cc(OC)c(O)cc2C1` [EHMTIQ (11a), 2-ethylcarbonyl-7-hydroxy-6-methoxy-1,2,3,4-tetrahydroisoquinoline], for which the “NO production induced by LPS, compared with the control not treated with EHMTIQ” value in data set [1] (5 (concentration unit printed as image)) is 63±4%. The NO production entry in data set [1] (100 (concentration unit printed as image)) was “inhibit NO production to the control level”. For the same compound, the midpoint of inhibition in data set [1] (Mus musculus, unit printed as image), the IC50, lay at 2810 nM. Further, the cytotoxicity entry in data set [2] is “did not exhibit any cytotoxicity”. For the same compound, in data set [3] (2.5 (unit as image)), the “mRNA level of TNF-α” value was “decreased the mRNA level to a statistically significant level”. Also, the “mRNA level of TNF-α compared to the control only treated with LPS” value in data set [3] (5 (unit as image)) came to 74±1%; in data set [3] (100 (unit as image)), 36±1%. Also, the “scavenging activity of DPPH radicals” value in data set [4] was “proportional to the concentration”. The EHMTIQ degraded entry in data set [5] (2-hour exposure to liver microsomes) was “about 12.52%”. Besides, in data set [5] (30-minute exposure to liver microsomes), the EHMTIQ remained is reported as about 95%. The “degeneration rate of EHMTIQ” value in data set [5] (liver microsomes, NADPH-regeneration system) is reported as 1.115±0.203 nmole (EHMTIQ)/min/mg (liver microsomal protein).

Broadly, the IC50 is the midpoint of a concentration-inhibition curve.
